We go through four molecules from US8703727B2, “Nanotechnology formulation of poorly soluble compounds” (Aphios Corporation, priority 2010, dated 2014).

≈ marks a conversion by molar mass, not a printed value. Like-named read-outs stand apart in the source and are kept apart here. Where only a bound is given, the exact number is not on record here.

Data set [1] in a line: HPLC analysis of 0.45 micron filter filtrate of BPN-20 in 1% PVA. In kind it is physicochemical. How it is done: Procedure: • 1. Write A, B, C, and D on each of four 0.45 micron 47 mm Nylon 66 filters with a soft pencil. • 2. Weigh each of the filters. • 3. Draw Methanol through Filter A and set on a paper towel to dry. • 4. Weigh about 10 mg of aminoflavone onto Filter B and get an accurate weight. • 5. Draw 100 mL of Methanol through Filter B and bring to 100 mL in a 100 mL vol flask • 6. Set Filter B aside to dry on a paper towel. • 7. Draw 20 mL of 1% PVA through Filter C and set on a paper towel to dry. • Save the Filtrate for HPLC Assay • 8. Draw 20 mL of BPN-20 yellow ppt through Filter D and set on a paper towel to dry. • Save the Filtrate for HPLC Assay • 9. Place all four filters in the vacuum oven for 1 hour at 60 C. Then weigh the filters. • 10. Draw 100 mL of Methanol through Filters C and D. Bring to 100 mL with Methanol. • 11. Dry, vacuum oven, and get an accurate weight on filters C and D.

The nature of data set [2]: Preliminary solubility experiments in methanol. In kind it is physicochemical. How it is done:
Samples were weighed into 20-mL scintillation vials and 10 mL of methanol pipetted into each vial. […] An additional 10 mL of methanol was added to each of these vials. Now sample 3 dissolved completely, but particles still remained in sample 5. An additional 20 mL of methanol was added to sample 5, but on sonication, the small quantity of particles still remained.

Data set [3] can be described thus: Solubility of aminoflavone in DI water and 1% PVA (HPLC). Particulars: for solubility at 5 min: thermodynamic from solid. The class given is physicochemical. Here is the method: Procedure: • 1. Weigh 5-10 mg of Aminoflavone into two 20 mL scintillation vials. • 2. Pipette 10 mL of water into Vial A and 10 mL of 1% PVA into Vial B. • 3. Shake the vials gently for about 5 minutes. Then let stand for 30 minutes. • 4. Carefully withdraw 0.9 mL from each vial for HPLC Analysis • 5. Shake the samples again and transfer to 50 mL Centrifuge tubes. • 6. Centrifuge for 20 minutes at 2500 rpm • 7. Again carefully withdraw 0.9 mL from each for HPLC Analysis.
Shaking the Aminoflavone in either water or 1% Aqueous PVA results in a dispersion of small particles that are difficult to see. They are suspended in the solution. HPLC duplication will be very poor since the “solution” is not uniform suspension of different size particles.

For data set [4] the following is noted: molar-equivalent basis; cited from earlier work.
The conditions of data set [5]: cited from earlier work.
The nature of data set [6]: HPLC analysis for degradation after supercritical fluid particle size reduction. In kind it is physicochemical. Particulars: nitrogen 3,000 psig, 60 minutes, rapid depressurization. Here is the method: Three nanoparticles experiments were conducted—two with surrogate compounds and one with aminoflavone prodrug (Sample 5). In general, the poorly water-soluble anticancer compound was first saturated with water by placement in the vapor generated by a 39° C. temperature water bath for 60 minutes. The water-saturated sample was then frozen in a −80° C. freezer for 60 minutes. The frozen particles were then placed in the chamber of the nanoparticles apparatus (FIG. 2) and contacted with nitrogen at 3,000 psig for 60 minutes to ensure maximum saturation of the hydrophobic anticancer compound by the SFS. The materials were then rapidly depressurized, discharging the chamber contents into a collection container. The experiments were conducted following Standard Operating Procedure SOP #APH-S0603 and Drawing #9706-001 Rev 2 in Appendix C.
Three samples in aluminum weigh boats with contents weight of 0.4 to 0.5 mg was provided. To obtain the assay solution, each boat was placed in a sonicator bath filled to a height of 3 mm with water. Ten milliliters of methanol was pipetted into the boat and the sonicator was turned on for 20 seconds. The yellow residue in the boat dissolved completely in less than 5 seconds. After sonication, the sample was drawn back into the 10 mL pipette and transferred to a 20 mL scintillation vial to await HPLC assay. […]

The nature of data set [7]: Solubility of S4 and S5 in methanol and ethanol (saturated solution, HPLC). The class given is physicochemical. Particulars: 25° C.; for solubility at 5 min: organic solvent or mixture, thermodynamic from solid. How it is done: HPLC Method • Column: Phenomenex Luna C18(2), 15-cm×4.6 mm. • Buffer Concentrate (BC): 100 mL Et3N×80 mL 85% H3PO4 to 1000 mL with water. • Mobile Phase B=250 mL ACN+10 mL of BC to 1000 mL with water. • Mobile Phase C=100% ACN • Isocratic Mixture: 60% Phase B and 40% Phase C. • Alternatively, use 55% Acetonitrile with 3-mL Buffer Concentrate/1000 mL • Flow=1.5 mL/min Temperature=30° C. Wavelength=330 nm Injection=20 μL
Procedure for Formation of a Saturated Solution • 1. Weigh in duplicate approximately 100 milligrams of each standard into 1.5 mL mini-centrifuge tubes. • 2. Add 1.00 mL of Methanol to a S4 tube and 1.00 mL of Ethanol to the other S4 tube. Add 1.00 mL of Methanol to a S5 tube and 1.00 mL of Ethanol to the other S5 tube. • 3. Shake all four tubes for 5 minutes at room temperature (25° C.). • 4. Centrifuge at 6000 rpm for 10 minutes. The supernatant should be a saturated solution. • 5. Assay the supernatants by HPLC. Use a 20/1000 dilution in methanol. The target absorbance is 0.40 AU. A reasonable absorbance range is 0.10 to 1.20. If the absorbance that is found is outside of this range, dilute appropriately to bring the absorbance close to 0.40.

Data set [8] is described as follows: Solubility of aminoflavone in Freon-22 / ethanol (BPN-06, BPN-07, BPN-08). The class given is physicochemical. Particulars: 40 °C, organic solvent or mixture, thermodynamic from solid. Here is the method: Three supercritical, critical or near critical fluid solubility experiments were conducted on the aminoflavone prodrug (NSC 686288). The experiments were conducted with 100% (neat) Freon-22 at 3,000 psig (BPN-06), and 40° C., 90% Freon-22/10% ethanol at 3,000 psig and 40° C. (BPN-07) and 80% Freon-22/20% ethanol at 3,000 psig and 40° C. (BPN-08). These supercritical, critical or near critical fluid and conditions were selected on the basis of previous experience.
A 5.0 mL sample loop was utilized and each collection vial contained 5.0 ml of the same liquid as the sample loop rinse. Methanol was used as the collection fluid and sample rinse in BPN-06; ethanol was utilized as the collection fluid and sample rinse in BPN-07 and BPN-08. Samples were collected after circulation for 60, 75, 90, 105 and 120 minutes; the sample loop was then flushed of CO2 (except BPN-06). The fractions were then analyzed by HPLC. Each solubility data point is the average of 5 measurements.

Data set [9] in a line: HPLC of old standard solutions stored at room temperature. In kind it is physicochemical.

As to `Cc1c(F)c(N)c2c(=O)cc(-c3ccc(N)c(F)c3)oc2c1F` [Sample 5, Aminoflavone], the “solubility in 1% PVA” value in [1] is recorded as “essentially insoluble”. In addition, the “S = mg/100 mL (preliminary solubility in methanol)” value (“S = mg/100 mL” below) in data set [2] is 48 mg/100 mL. The solubility (usually how much of the substance goes into solution per volume) was 480 µg/mL (≈ 1500 µM) in data set [2] (organic solvent or mixture, thermodynamic from solid, read-out: measured solubility in methanol); 0.126 to 0.188 µg/mL in data set [5] (pH 4 and pH 7); 65 µg/mL (≈ 203 µM) in data set [8] (BPN-06: Freon-22 100 vol %, ethanol 0 vol %, 3,000 psig and 40° C.); 108 µg/mL (≈ 337 µM) in data set [8] (BPN-07: Freon-22 90 vol %, ethanol 10 vol %, 3,000 psig and 40° C.); 116 µg/mL (≈ 362 µM) in data set [8] (BPN-08: Freon-22 80 vol %, ethanol 20 vol %, 3,000 psig and 40° C.). In addition, the solubility at 5 min in data set [3] (1% PVA in water, aqueous with cosolvent or surfactant or cyclodextrin, 1% PVA after centrifugation, average, read-out: average (actual) solubility) worked out at 0.22 µg/mL (≈ 0.687 µM); in data set [3] (1% PVA in water, aqueous with cosolvent or surfactant or cyclodextrin, 1% PVA after centrifugation, read-out: Solubility) it was 0.2 µg/mL (≈ 0.624 µM); in data set [3] (1% PVA in water, aqueous with cosolvent or surfactant or cyclodextrin, 1% PVA, after shaking, before centrifugation, read-out: Solubility), 14 µg/mL (≈ 43.7 µM); in data set [3] (1% PVA in water, aqueous with cosolvent or surfactant or cyclodextrin, 1% PVA, before centrifugation, average, read-out: average (apparent) solubility), 12.1 µg/mL (≈ 37.6 µM); in data set [3] (DI water, water, DI water after centrifugation, average, read-out: average solubility) it was 0.33 µg/mL (≈ 1.03 µM); in data set [3] (DI water, water, DI water after centrifugation, read-out: Solubility), 0.34 µg/mL (≈ 1.06 µM). For the same molecule, the solubility at 5 min stood at 7.84 µg/mL (≈ 24.5 µM) in data set [3] (DI water, water, DI water, after shaking, before centrifugation, read-out: Solubility); 10.7 µg/mL (≈ 33.3 µM) in data set [3] (DI water, water, DI water, before centrifugation, average, read-out: average solubility); 240 µg/mL (≈ 749 µM) in data set [7] (Ethanol); 280 µg/mL (≈ 874 µM) in data set [7] (Methanol). Besides, the “average (apparent) solubility” value in data set [3] (1% PVA, before centrifugation, average) is 12 µg/mL. In [3] (DI water after centrifugation, average), this molecule yielded an average solubility of 0.31 µg/mL. Moreover, the “toxicity of intravenous treatments versus prodrug NSC 710464D” value in data set [4] was “less toxic”. Further, the “solubility in DMSO” value in data set [5] (DMSO) was “readily soluble”. Further, in data set [5] (pH 10 (glycine buffer)), the aqueous solubility (in general, how much of the substance goes into solution per volume) was 0.65 µg/mL (≈ 2.03 µM). Moreover, the “product degradation of treated materials versus untreated controls (HPLC)” value in [6] is on record as “did not indicate any product degradation”. The entries for the “Solubility (mg/100 mL)” value in [7] (Ethanol) and in [7] (Methanol) were 240 mg/100 mL and 280 mg/100 mL, respectively.

With `CC1=C(/C=C/C(C)=C/C=C/C(C)=C/C(=O)Nc2ccc(O)cc2)C(C)(C)CCC1` [Sample 2, Fenretinide (4HPR)], the “S = mg/100 mL” value in data set [2] is given as more than 163 mg/100 mL. The “decomposition of old standard solution” value in data set [9] (methanol solution stored at room temperature on the laboratory bench) was “showed decomposition products”.

For the molecule `CCCCCCCCCCCCCCC[C@H](O)[C@@H](N)CO` [Sample 3, Safingol], the “S = mg/100 mL” value in data set [2] was more than 87 mg/100 mL.

As for `C=CCNC1=C2C[C@@H](C)C[C@H](OC)[C@H](O)[C@@H](C)/C=C(\C)[C@H](OC(N)=O)[C@@H](OC)/C=C\C=C(/C)C(=O)NC(=CC1=O)C2=O` [Sample 4, 17-Allylamino Demethoxygeldanamycin (17-AAG)], the “S = mg/100 mL” value in [2] is reported as more than 220 mg/100 mL. Moreover, in [9] (methanol solution exposed to room light and temperature for several weeks), the “decomposition of old standard solution” value is “only tiny decomposition peaks”. Moreover, in data set [7] (Ethanol), the “Solubility (mg/100 mL)” value is recorded as 1478 mg/100 mL and the solubility at 5 min came out at 1480 µg/mL (≈ 2520 µM). In addition, in data set [7] (Methanol), the “Solubility (mg/100 mL)” value is given as 4260 mg/100 mL and the solubility at 5 min was determined as 4260 µg/mL (≈ 7270 µM).
